Assay results taken from patent US20150105252A1, “SUBSTITUTED PYRAZOLES AS HERBICIDES” (E I DU PONT DE NEMOURS AND COMPANY, priority 2013, published 2015).

Assays:
[1] = tested on: canarygrass; experiment: Test D preemergence; format: in vivo, Phalaris minor; details: Preemergence, scale 0 to 100
Summary of the method: (§1)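 Visual 0–100 control ratings at 14–21 days in a controlled growth environment. Application preemergence onto silt loam or postemergence onto 2–18 cm seedlings, using a non-phytotoxic solvent formulation with surfactant.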

[2] = tested on: bromegrass, downy; experiment: Test D preemergence; format: in vivo, Bromus tectorum; details: Preemergence, scale 0 to 100
From the text: (§2) Seeds of plant species selected from bluegrass (annual bluegrass, Poa annua), blackgrass (Alopecurus myosuroides), canarygrass (littleseed canarygrass, Phalaris minor), chickweed (common chickweed, Stellaria media), galium (catchweed bedstraw, Galium aparine), bromegrass, downy (downy bromegrass, Bromus tectorum), field poppy (Papaver rhoeas), field violet (Viola arvensis), foxtail, green (green foxtail, Setaria viridis), deadnettle (henbit deadnettle, Lamium amplexicaule), ryegrass, Italian (Italian ryegrass, Lolium multiflorum), kochia (Kochia scoparia), lambsquarters (Chenopodium album), oilseed rape (Brassica napus), pigweed (redroot pigweed, Amaranthus retroflexus), chamomile (scentless chamomile, Matricaria inodora), speedwell (bird's-eye speedwell, Veronica persica), barley, spring (spring barley, Hordeum vulgare), wheat, spring (spring wheat, Triticum aestivum), buckwheat, wild (wild buckwheat, Polygonum convolvulus), mustard, wild (wild mustard, Sinapis arvensis), oat, wild (wild oat, Avena fatua), radish, wild (wild radish, Raphanus raphanistrum), windgrass (Apera spica-venti), Russian thistle (Salsola kali), barley, winter (winter barley, Hordeum vulgare), and wheat, winter (winter wheat, Triticum aestivum) were planted into a silt loam soil and treated preemergence with test chemicals formulated in a non-phytotoxic solvent mixture which included a surfactant.
(§3) At the same time, these species were planted in pots containing Redi-Earth® planting medium (Scotts Company, 14111 Scottslawn Road, Marysville, Ohio 43041) comprising spaghnum peat moss, vermiculite, wetting agent and starter nutrients and treated with postemergence applications of the test chemicals formulated in the same manner. Plants ranged in height from 2 to 18 cm (1- to 4-leaf stage). Treated plants and controls were maintained in a controlled growth environment for 14 to 21 days after which time all species were compared to controls and visually evaluated. Plant response ratings, summarized in Table D, are based on a scale of 0 to 100 where 0 is no effect and 100 is complete control. A dash (-) response means no test result.

[3] = tested on: field poppy; experiment: Test D preemergence; format: in vivo, Papaver rhoeas; details: Preemergence, scale 0 to 100
Summary of the method: as §1

[4] = tested on: field violet; experiment: Test D preemergence; format: in vivo, Viola arvensis; details: Preemergence, scale 0 to 100
Summary of the method: as §1

[5] = tested on: ryegrass, Italian; experiment: Test D preemergence; format: in vivo, Lolium multiflorum; details: Preemergence, scale 0 to 100
From the text: as §2, §3

[6] = tested on: lambsquarters; experiment: Test D preemergence; format: in vivo, Chenopodium album; details: Preemergence, scale 0 to 100
Summary of the method: as §1

[7] = tested on: pigweed; experiment: Test D preemergence; format: in vivo, Amaranthus retroflexus; details: Preemergence, scale 0 to 100
Summary of the method: as §1

[8] = tested on: speedwell; experiment: Test D preemergence; format: in vivo, Veronica persica; details: Preemergence, scale 0 to 100
From the text: as §2, §3

[9] = tested on: barley, spring; experiment: Test D preemergence; format: in vivo, Hordeum vulgare; details: Preemergence, scale 0 to 100
Summary of the method: as §1

[10] = tested on: barley, winter; experiment: Test D preemergence; format: in vivo, Hordeum vulgare; details: Preemergence, scale 0 to 100
Summary of the method: as §1

[11] = tested on: radish, wild; experiment: Test D preemergence; format: in vivo, Raphanus raphanistrum; details: Preemergence, scale 0 to 100
From the text: as §2, §3

[12] = tested on: bluegrass; experiment: Test D postemergence; format: in vivo, Poa annua; details: scale 0 to 100
Summary of the method: as §1

[13] = tested on: blackgrass; experiment: Test D postemergence; format: in vivo, Alopecurus myosuroides; details: scale 0 to 100
From the text: as §2, §3

[14] = tested on: chickweed; experiment: Test D postemergence; format: in vivo, Stellaria media; details: scale 0 to 100
From the text: as §2, §3

[15] = tested on: ryegrass, Italian; experiment: Test D postemergence; format: in vivo, Lolium multiflorum; details: scale 0 to 100
Summary of the method: as §1

[16] = tested on: kochia; experiment: Test D postemergence; format: in vivo, Kochia scoparia; details: scale 0 to 100
Summary of the method: as §1

[17] = tested on: oilseed rape; experiment: Test D postemergence; format: in vivo, Brassica napus; details: scale 0 to 100
Summary of the method: as §1

[18] = tested on: wheat, spring; experiment: Test D postemergence; format: in vivo, Triticum aestivum; details: scale 0 to 100
Summary of the method: as §1

[19] = tested on: wheat, winter; experiment: Test D postemergence; format: in vivo, Triticum aestivum; details: scale 0 to 100
Summary of the method: as §1

[20] = tested on: oat, wild; experiment: Test D postemergence; format: in vivo, Avena fatua; details: scale 0 to 100
Summary of the method: as §1

CCCc1cc(C(=O)NC(C)C)nn1Cc1cc(C(F)(F)F)nn1C [Compound 201]
Plant response rating, Canarygrass ([1]; 31 g ai/ha): 60
Plant response rating, Canarygrass ([1]; 62 g ai/ha): 100
Plant response rating, Canarygrass ([1]; 125 g ai/ha): 100
Plant response rating, Canarygrass ([1]; 250 g ai/ha): 100
Plant response rating, Bromegrass, Downy ([2]; 31 g ai/ha): 20
Plant response rating, Bromegrass, Downy ([2]; 62 g ai/ha): 60
Plant response rating, Bromegrass, Downy ([2]; 125 g ai/ha): 70
Plant response rating, Bromegrass, Downy ([2]; 250 g ai/ha): 100
Plant response rating, Field Poppy ([3]; 62 g ai/ha): 100
Plant response rating, Field Poppy ([3]; 125 g ai/ha): 100
Plant response rating, Field Poppy ([3]; 250 g ai/ha): 100
Plant response rating, Field Violet ([4]; 62 g ai/ha): 100
Plant response rating, Field Violet ([4]; 125 g ai/ha): 100
Plant response rating, Field Violet ([4]; 250 g ai/ha): 100
Plant response rating, Ryegrass, Italian ([5]; 62 g ai/ha): 65
Plant response rating, Ryegrass, Italian ([5]; 125 g ai/ha): 85
Plant response rating, Ryegrass, Italian ([5]; 250 g ai/ha): 100
Plant response rating, Lambsquarters ([6]; 62 g ai/ha): 90
Plant response rating, Lambsquarters ([6]; 125 g ai/ha): 100
Plant response rating, Lambsquarters ([6]; 250 g ai/ha): 100
Plant response rating, Pigweed ([7]; 62 g ai/ha): 80
Plant response rating, Pigweed ([7]; 125 g ai/ha): 100
Plant response rating, Pigweed ([7]; 250 g ai/ha): 100
Plant response rating, Speedwell ([8]; 62 g ai/ha): 100
Plant response rating, Speedwell ([8]; 125 g ai/ha): 100
Plant response rating, Speedwell ([8]; 250 g ai/ha): 100
Plant response rating, Barley, Spring ([9]; 31 g ai/ha): 0
Plant response rating, Barley, Spring ([9]; 62 g ai/ha): 20
Plant response rating, Barley, Spring ([9]; 125 g ai/ha): 65
Plant response rating, Barley, Spring ([9]; 250 g ai/ha): 75
Plant response rating, Barley, Winter ([10]; 31 g ai/ha): 25
Plant response rating, Barley, Winter ([10]; 62 g ai/ha): 35
Plant response rating, Barley, Winter ([10]; 125 g ai/ha): 45
Plant response rating, Barley, Winter ([10]; 250 g ai/ha): 100
Plant response rating, Radish, Wild ([11]; 62 g ai/ha): 100
Plant response rating, Radish, Wild ([11]; 125 g ai/ha): 100
Plant response rating, Radish, Wild ([11]; 250 g ai/ha): 100
Bluegrass plant response rating ([12]; Postemergence, 31 g ai/ha): 20
Bluegrass plant response rating ([12]; Postemergence, 125 g ai/ha): 35
Bluegrass plant response rating ([12]; Postemergence, 250 g ai/ha): 40
Bluegrass plant response rating ([12]; postemergence, 62 g ai/ha): 20
Blackgrass plant response rating ([13]; Postemergence, 31 g ai/ha): 25
Blackgrass plant response rating ([13]; Postemergence, 125 g ai/ha): 50
Blackgrass plant response rating ([13]; Postemergence, 250 g ai/ha): 65
Blackgrass plant response rating ([13]; postemergence, 62 g ai/ha): 25
Chickweed plant response rating ([14]; Postemergence, 31 g ai/ha): 55
Chickweed plant response rating ([14]; Postemergence, 125 g ai/ha): 70
Chickweed plant response rating ([14]; Postemergence, 250 g ai/ha): 75
Chickweed plant response rating ([14]; postemergence, 62 g ai/ha): 55
Ryegrass, Italian plant response rating ([15]; Postemergence, 31 g ai/ha): 15
Ryegrass, Italian plant response rating ([15]; Postemergence, 125 g ai/ha): 20
Ryegrass, Italian plant response rating ([15]; Postemergence, 250 g ai/ha): 50
Ryegrass, Italian plant response rating ([15]; postemergence, 62 g ai/ha): 15
Kochia plant response rating ([16]; Postemergence, 31 g ai/ha): 75
Kochia plant response rating ([16]; Postemergence, 125 g ai/ha): 85
Kochia plant response rating ([16]; Postemergence, 250 g ai/ha): 85
Kochia plant response rating ([16]; postemergence, 62 g ai/ha): 75
Oilseed Rape plant response rating ([17]; Postemergence, 31 g ai/ha): 40
Oilseed Rape plant response rating ([17]; Postemergence, 125 g ai/ha): 50
Oilseed Rape plant response rating ([17]; Postemergence, 250 g ai/ha): 70
Oilseed Rape plant response rating ([17]; postemergence, 62 g ai/ha): 40
Wheat, Spring plant response rating ([18]; Postemergence, 31 g ai/ha): 15
Wheat, Spring plant response rating ([18]; Postemergence, 125 g ai/ha): 15
Wheat, Spring plant response rating ([18]; Postemergence, 250 g ai/ha): 30
Wheat, Spring plant response rating ([18]; postemergence, 62 g ai/ha): 15
Wheat, Winter plant response rating ([19]; Postemergence, 31 g ai/ha): 20
Wheat, Winter plant response rating ([19]; Postemergence, 125 g ai/ha): 25
Wheat, Winter plant response rating ([19]; Postemergence, 250 g ai/ha): 40
Wheat, Winter plant response rating ([19]; postemergence, 62 g ai/ha): 20
Oat, Wild plant response rating ([20]; Postemergence, 31 g ai/ha): 25
Oat, Wild plant response rating ([20]; Postemergence, 125 g ai/ha): 50
Oat, Wild plant response rating ([20]; Postemergence, 250 g ai/ha): 70
Oat, Wild plant response rating ([20]; postemergence, 62 g ai/ha): 25
